In patent US8329392B2, “Determination of testosterone by mass spectrometry” (Quest Diagnostics Investments Incorporated, priority 2003, dated 2012):

What was measured:
[1] = target: T1, Sex hormone-binding globulin (SHBG) (Homo sapiens, UniProt P04278); details: SHBG vs albumin; cited from earlier work
T1 sequence (P04278 30-402): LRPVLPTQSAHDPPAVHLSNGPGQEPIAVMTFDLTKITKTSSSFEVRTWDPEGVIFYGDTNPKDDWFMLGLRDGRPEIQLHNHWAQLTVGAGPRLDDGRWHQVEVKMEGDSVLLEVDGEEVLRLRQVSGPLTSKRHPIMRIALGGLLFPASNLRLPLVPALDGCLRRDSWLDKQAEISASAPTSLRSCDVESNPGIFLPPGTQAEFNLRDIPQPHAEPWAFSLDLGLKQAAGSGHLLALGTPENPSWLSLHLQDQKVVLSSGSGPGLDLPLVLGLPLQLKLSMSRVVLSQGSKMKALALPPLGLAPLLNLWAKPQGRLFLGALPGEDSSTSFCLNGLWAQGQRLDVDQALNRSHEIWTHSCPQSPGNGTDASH

[2] = tested on: plasma proteins; details: in circulation; cited from earlier work
[3] = Sample stability of testosterone in sample pools; type: physicochemical, human; details: testosterone in samples
Source text: A blood serum sample is collected from a human patient. The serum is first de-proteinated using a 10% formic acid solution or a 1% trichloroacetic acid solution (in methanol). The deproteination also acts to release testosterone from SHBG, albumin, and other binding proteins. In other embodiments proteins can be removed from the blood with other acids such as a solution of 1% trichloroacetic acid in methanol.
To understand the stability of testosterone in samples, two levels of sample pool were subjected to the following conditions:
Freeze/Thaw: 1, 2, 3, 4, and 5 cycles.
Refrigerated (2-8° C.): 0, 1, 2, 4, 7, and 14 days.
Duplicate runs of samples were run on two separate days.

C[C@]12CC[C@H]3[C@@H](CCC4=CC(=O)CC[C@@]43C)[C@@H]1CC[C@@H]2O [Testosterone, 4 androsten 17β-ol-3-one]
binding capacity of SHBG for testosterone relative to that of albumin [1]: approximately 30,000 times
testosterone circulating unbound to plasma proteins [2]: Less than 2.5%
Stability ([3]; Freeze Thaw Cycles, with no effect): Up to 5 with no effect Cycles
Stability ([3]; Refrigerated (0°-8° C.)): 7 days
Stability ([3]; Room Temp (18-25° C.)): 4 days
